The record followed here is a melting point compilation (Tetko et al.; mined from patent text by program, amines drawn as free bases though some values may be those of a salt).

Each structure is given as a SMILES string.

In the case of `COc1ccc(OC)c(C(=O)/C=C/C(=C/C(=O)O)c2ccccc2)c1`, the melting point (commonly the temperature of the solid-liquid transition) came out at 165 °C.

Molecule `CCN(C)C(=O)N(C)C(=O)Nc1ccccc1` displayed a melting point of 88.5 to 90.5 °C.

The molecule `Cc1noc(NS(=O)(=O)c2c(Cc3ccc4c(c3)OCO4)sc3ccccc23)c1C` had a melting point of 135 to 137 °C.

`O=C1NCCc2oc3ccccc3c21` showed a melting point of 158 to 161 °C.

Regarding `CN(C)C(=O)c1cn(-c2cc3c(=O)n(NS(C)(=O)=O)c(=O)[nH]c3cc2C(F)(F)F)cn1`, the melting point fell in the range of 284 to 286 °C.

Consider `Fc1ccc(Cn2c(NC3CCN(CCc4ccccn4)CC3)nc3cncnc32)cc1`, for which the melting point turned out to be 172 °C.

Molecule `COc1ccc2ccc(CC3=NOS(=O)N3)cc2c1` (centres undefined) registered a melting point of 146 to 147 °C.

`CCCCCCCCCCCCCCCCCCOc1cc(OCCCOc2ccc(C(C)(C)C)cc2)cc(N(CC(=O)O)CC(=O)O)c1`: the melting point fell in the range of 99 to 101 °C.

`Cn1cccc1C1=CC(=O)c2ncccc2C1=O` gave a melting point of 167 to 168 °C.

For `COC(=O)C(C)(C)OCc1cc2cc(C(F)(F)F)ccc2n1S(=O)(=O)c1cc(OC)ccc1OC`, the melting point was in the range of 130 to 132 °C.

The molecule `CC(C)c1ccc2nc(Cl)cn2n1` displayed a melting point of 69 to 71 °C.

The molecule `CC(C)(CO)c1ccc(C(=O)Nc2cn3cc(Cl)ccc3n2)cc1` came in with a melting point of 240 to 242 °C.

`COC(=O)c1nc2cccc(OC)c2c(O)c1C(=O)OC`: the melting point was 184 to 186 °C.

In turn, `Cc1cn(-c2cc(NC(=O)c3cccc(Nc4nccc(-c5cccnc5)n4)c3)cc(C(F)(F)F)c2)cn1` gave a melting point of 264 to 266 °C.

For `N#CC1CCc2cc(C(N)=O)ccc2C1` (centres undefined), the melting point was 180 to 182 °C.

`Cc1coc(N(CCCCCCN)c2nc(C)co2)n1` yielded a melting point of 124 °C.

For the molecule `O=[N+]([O-])c1cccn2nc(SCc3ccccc3)nc12`, the melting point is 125 to 126 °C.

Turning to `Cc1cc(-c2ccc(S(N)(=O)=O)cc2)n(-c2ccc(SSc3ccc(-n4cc(C)cc4-c4ccc(S(N)(=O)=O)cc4)cc3)cc2)c1`, the melting point was in the range of 251 to 255 °C.

`COc1cc(Nc2c(C#N)cnc3ccc(/C=C/CCN4CCOCC4)cc23)c(Cl)cc1Cl`: the melting point was 95 to 96 °C.

`COc1cc2c(cc1[N+](=O)[O-])-c1c(-c3cccs3)c3c(n1CC2)C(=O)N(C(C)(C)C)CCC3` gave a melting point of 279 to 280 °C.

In the case of `CCC(C)Cc1c(-c2ccc(C(N)=S)cc2Cl)c(C)nc2ncnn12` (centres undefined), the melting point fell in the range of 173 to 177 °C.

Regarding `O=C(CSc1ccccc1)Nc1c(Cl)ccc2nc(N3CC[C@@H](O)C3)ccc12`, the melting point is 246 to 249 °C.

Consider `CC(C)(c1cccc(C(F)(F)F)c1)N1C[C@H]([C@H](Cc2ccccc2)NC(=O)c2cc(C(=O)O)c3n2CCN(S(C)(=O)=O)C3)OC1=O`, for which the melting point stood at 147 °C.

`CC(C)(C)OC(=O)N1CC2CCCCC(C1)C2=O` gave a melting point of 50 to 52 °C.

Take `O=C(O)c1c(OCc2ccccc2)ccc2ccccc12`: the melting point lay in the range of 127 to 128 °C.

Consider `CCNc1nnc(-c2ccc3ncn(-c4ccc(SC)cc4)c3c2)o1`, for which the melting point lay in the range of 226 to 227 °C.

With `COc1ccc(C(=O)Nc2ccccc2)cc1NS(=O)(=O)c1sc(NC(C)=O)nc1C`, the melting point lay within 260 to 261 °C.

For the molecule `Nc1nc2ccccc2n2cnc(-c3noc(C4CC4)n3)c12`, the melting point was 305 to 310 °C.

For `O=[N+]([O-])c1cc(Br)ccc1-c1ccc(Cl)cc1Cl`, the melting point was 112 to 115 °C.

`Cc1ccc(Cc2c[nH]c(=S)[nH]c2=O)cn1` gave a melting point of 240 to 241 °C.

As for `COc1cc(Cc2cnc(NOC3CCCCO3)nc2NO)cc(OC)c1OC` (centres undefined), the melting point fell in the range of 190 to 192 °C.

The molecule `COc1ccc2nc(-c3ccc(Cl)cc3)cn2c1` gave a melting point of 148 to 149 °C.

Regarding `O=C(O)CC1CCC2CC(=O)NC12` (centres undefined), the melting point lay in the range of 186 to 189 °C.

Molecule `CS(=O)(=O)Nc1cc2occ(NC=O)c(=O)c2cc1Oc1ccccc1` had a melting point of 236 to 238 °C.
